Source: patent US12060349B2, “Glucosylceramide synthase inhibitors” (Genzyme Corporation, priority 2012, dated 2024)

What was measured:
B16 mouse melanoma cells = assay: cell viability in the B16 cell-based assay (Viability, B16 IC50); conditions: Mus musculus, B16, B16 cells; concentration causing 50% cell death; values greater than 10 represent a lack of cell death; read-out: Viability, B16 IC50
In short: (§1)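 Both lines undergo the phenotypic GM3 assay, and viability is recorded from that same cell-based run.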

[1] = system: GM3 expression on the cell surface, C32 human melanoma cells; assay: cell based phenotypic assay, cell surface GM3 by antibody mediated immunofluorescence, C32 (GM3 C32 IC50); conditions: Homo sapiens, C32 human melanoma cells; 50% inhibition of GM3 expression on the cell surface; read-out: GM3 C32 IC50
In short: (§2)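 B16 mouse and C32 human melanoma cells; cell-surface GM3 measured by antibody-mediated immunofluorescence, giving IC50.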

[2] = biological target: T1, glucosylceramide synthase (Homo sapiens, UniProt Q16739); assay: microsomal assay measuring conversion of ceramide to glucosylceramide by HPLC (GCS IC50); type: biochemical; conditions: concentration causing 50% inhibition of glucosylceramide synthase activity
T1 construct: Microsomes were isolated from A375 human melanoma cells; endogenous in cells; host or cells: A375 human melanoma cells (microsomal fraction, 100,000 g pellet)
T1 sequence (Q16739 1-394): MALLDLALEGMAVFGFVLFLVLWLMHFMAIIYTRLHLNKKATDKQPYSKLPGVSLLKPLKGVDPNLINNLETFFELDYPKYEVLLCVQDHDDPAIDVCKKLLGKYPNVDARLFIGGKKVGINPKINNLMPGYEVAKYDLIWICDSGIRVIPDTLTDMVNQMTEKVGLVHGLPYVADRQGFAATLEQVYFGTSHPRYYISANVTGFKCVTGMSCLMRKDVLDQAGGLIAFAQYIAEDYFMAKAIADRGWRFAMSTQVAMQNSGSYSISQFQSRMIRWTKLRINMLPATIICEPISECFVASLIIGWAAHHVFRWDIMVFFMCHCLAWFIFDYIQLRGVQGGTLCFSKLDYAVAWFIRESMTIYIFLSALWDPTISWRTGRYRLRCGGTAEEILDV
In short: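 Microsomal preparation assayed for glucosylceramide synthase by direct HPLC measurement of ceramide conversion to glucosylceramide. GCS IC50 is the compound concentration giving 50% inhibition of enzyme activity.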

C32 human melanoma cells = assay: cell viability in the C32 cell-based assay (Viability, C32 IC50); conditions: Homo sapiens, C32, C32 cells; concentration causing 50% cell death; values greater than 10 represent a lack of cell death; read-out: Viability, C32 IC50
In short: as §1

[3] = system: GM3 expression on the cell surface, B16 mouse melanoma cells; assay: cell based phenotypic assay, cell surface GM3 by antibody mediated immunofluorescence, B16 (GM3 B16 IC50); conditions: Mus musculus, B16 mouse melanoma cells; 50% inhibition of GM3 expression on the cell surface; read-out: GM3 B16 IC50
In short: as §2

CC1(NC(=O)C2(F)CCN(c3ncc(OCc4ccc(F)cc4)cn3)CC2)CCN2CCC1CC2 (centres unmarked) [Example 132, 4-Fluoro-1-(5-((4-fluorobenzyl)oxy)pyrimidin-2-yl)-N-(4-methyl-1-azabicyclo[3.2.2]nonan-4-yl)piperidine-4-carboxamide]
IC50 (B16 mouse melanoma cells): 4590 nM | IC50 [1]: 2.65 nM | IC50 [2]: 10.7 nM | IC50 (C32 human melanoma cells): 1000 nM | IC50 [3]: 115 nM

CC1(NC(=O)C2(F)CCN(c3cnc(Oc4ccc(F)cc4)cn3)CC2)CN2CCC1CC2 (centres unmarked) [Example 133, 4-Fluoro-1-(5-(4-fluorophenoxy)pyrazin-2-yl)-N-(3-methylquinuclidin-3-yl)piperidine-4-carboxamide]
IC50 (B16 mouse melanoma cells): ≥ 10000 nM | IC50 [1]: 4.83 nM | IC50 [2]: 45.9 nM | IC50 (C32 human melanoma cells): 1000 nM | IC50 [3]: 467 nM

CC1(NC(=O)C2(F)CCN(c3ccc(Oc4ccc(F)cc4)nn3)CC2)CCN2CCC1CC2 (centres unmarked) [Example 134, 4-Fluoro-1-(6-(4-fluorophenoxy)pyridazin-3-yl)-N-(4-methyl-1-azabicyclo[3.2.2]nonan-4-yl)piperidine-4-carboxamide]
IC50 (B16 mouse melanoma cells): ≥ 10000 nM | IC50 [1]: 2.83 nM | IC50 [2]: 14.5 nM | IC50 (C32 human melanoma cells): 1000 nM | IC50 [3]: 343 nM

CC1(NC(=O)C2(F)CCN(c3nccc(COc4ccc(F)cc4)n3)CC2)CN2CCC1CC2 (centres unmarked) [Example 135, 4-Fluoro-1-(4-((4-fluorophenoxy)methyl)pyrimidin-2-yl)-N-(3-methylquinuclidin-3-yl)piperidine-4-carboxamide]
IC50 (B16 mouse melanoma cells): 8250 nM | IC50 [1]: 0.132 nM | IC50 [2]: 1.38 nM | IC50 (C32 human melanoma cells): 46.4 nM | IC50 [3]: 31.7 nM

COCCOc1ccc(Cc2cnc(N3CCC(F)(C(=O)NC4(C)CN5CCC4CC5)CC3)nc2)cc1 (centres unmarked) [Example 136]
IC50 (B16 mouse melanoma cells): ≥ 10000 nM | IC50 [1]: 0.716 nM | IC50 [2]: 7.9 nM | IC50 (C32 human melanoma cells): 1000 nM | IC50 [3]: 24.9 nM

CC1CN(C(=O)NC2(C)CCN3CCC2CC3)CCN1c1nccc(-c2ccccc2)n1 (centres unmarked) [Example 141, 3-Methyl-N-(4-methyl-1-azabicyclo[3.2.2]nonan-4-yl)-4-(4-phenylpyrimidin-2-yl)piperazine-1-carboxamide]
IC50 (B16 mouse melanoma cells): 4670 nM | IC50 [1]: 0.888 nM | IC50 [2]: 5.96 nM | IC50 (C32 human melanoma cells): 316 nM | IC50 [3]: 209 nM

CCC1CN(C(=O)NC2(C)CCN3CCC2CC3)CCN1c1nccc(-c2ccccc2)n1 (centres unmarked) [Example 142, 3-Ethyl-N-(4-methyl-1-azabicyclo[3.2.2]nonan-4-yl)-4-(4-phenylpyrimidin-2-yl)piperazine-1-carboxamide]
IC50 (B16 mouse melanoma cells): 5340 nM | IC50 [1]: 0.861 nM | IC50 [2]: 7.69 nM | IC50 (C32 human melanoma cells): 9210 nM | IC50 [3]: 100 nM

COCC1CN(C(=O)NC2(C)CCN3CCC2CC3)CCN1c1nccc(-c2ccccc2)n1 (centres unmarked) [Example 144, 3-(Methoxymethyl)-N-(4-methyl-1-azabicyclo[3.2.2]nonan-4-yl)-4-(4-phenylpyrimidin-2-yl)piperazine-1-carboxamide]
IC50 (B16 mouse melanoma cells): ≥ 10000 nM | IC50 [1]: 6.33 nM | IC50 [2]: 67.3 nM | IC50 (C32 human melanoma cells): 1000 nM | IC50 [3]: 529 nM

CC1CN(C(=O)NC2(C)CCN3CCC2CC3)CCN1c1nccc(-c2ccc(F)cc2)n1 (centres unmarked) [Example 145, 4-(4-(4-Fluorophenyl)pyrimidin-2-yl)-3-methyl-N-(4-methyl-1-azabicyclo[3.2.2]nonan-4-yl)piperazine-1-carboxamide]
IC50 (B16 mouse melanoma cells): 6980 nM | IC50 [1]: 0.507 nM | IC50 [2]: 8.01 nM | IC50 (C32 human melanoma cells): 316 nM | IC50 [3]: 76.3 nM

COCc1ccc(-c2nc(N3CCN(C(=O)NC4(C)CCN5CCC4CC5)CC3C(C)C)ncc2F)cc1 (centres unmarked) [Example 148, 4-(5-Fluoro-4-(4-(methoxymethyl)phenyl)pyrimidin-2-yl)-3-isopropyl-N-(4-methyl-1-azabicyclo[3.2.2]nonan-4-yl)piperazine-1-carboxamide]
IC50 (B16 mouse melanoma cells): 3460 nM | IC50 [1]: 8.59 nM | IC50 [2]: 17.4 nM | IC50 (C32 human melanoma cells): 1000 nM | IC50 [3]: 390 nM
